Reference: patent publication US20250230226A1, “PLXDC1/PLXDC2 ACTIVATORS AND THEIR USE IN THE TREATMENT OF BLOOD VESSEL DISORDERS” (THE REGENTS OF THE UNIVERSITY OF CALIFORNIA, priority 2019, published 2025)

Tests used:
[1] = tested on: CT26.CL25 colon cancer tumor endothelial cells; experiment: Colon CT26 ex vivo model of tumor angiogenesis; type: cell-based, mouse
Procedure: An ex vivo tumor angiogenesis model was developed to test the efficacy of anti-cancer candidate agents. The following protocol describes the Ex Vivo Tumor Angiogenesis Model.
• 1. The day before the experiment, all necessary tools were sprayed with 70% ethanol and sterilized under UV light overnight, including blade, dissecting and micro-dissecting scissors and […]. 24-well dishes were placed at 4° C. to pre-chill plates and Matrigel was thawed, 24 hours before tumor dissection. • 2. 70% ethanol was sprayed on working bench. Two sterile petri dishes were prepared with 10 ml sterile PBS. The following steps 3 and 4 are necessary for mouse tumor models. For fresh human tumor, steps 3 and 4 are skipped. • 3. The tumor-bearing mice were euthanized. 70% ethanol was sprayed on the mouse and the tumor was removed using sterilized dissecting tools (avoid the fur). The tumor was rinsed in petri dish with sterile PBS to remove ethanol and fur. The tumor was transferred to a new petri dish with PBS for dissection. The dish is placed on ice. • 4. Pre-chilled sterile pipet tips were used to seed regular Matrigel in 24 well plates on ice. Matrigel (30 μl) was dropped in the middle of each well without touching the edge of the well (avoid introducing bubbles if possible). • 5. The tumor was cut in halves using the sterile blade. Healthy tumor tissue that is not necrotic and is within the tumor capsule was identified and isolated. The healthy tumor tissue was cut into small pieces. For instance, a suitable size for the tumor tissue is 0.5 mm (H)×0.5 mm (L)×0.3 mm (D) with a total volume of 0.075 mm^3. • 6. Each tumor piece was gently transferred and embedded in the Matrigel drop in the 24-well plate. The embedded piece was placed in the bottom and middle of each Matrigel drop. The plate was kept on ice all the time. • 7. After seeding the tumor pieces, plates were incubated in a 37° C. cell culture incubator without medium for 10 minutes in order for the Matrigel to solidify. • 8. Endothelial Growth Medium (0.5 ml) was added to each well and incubated at 37° C. with 5% CO2. Treatment was not added until the new endothelial cells was grown out of the tumor or were larger than 3 mm in diameter. This usually takes 4 days for the LL2 Lewis lung cancer model and 7 days for the CT26 colon cancer model. For human tumor models, the growth time is typically 2-3 weeks, depending on the tumor type. Media was changed every 4 days during prolonged culture. Typically, when the tumor tissue grows to 2 mm in diameter, it was good for drug testing. A size of about 3 mm in diameter can make visualization easier. • 9. When the assay was ready to be analyzed for cell death (e.g., 48 hours after drug addition), the dye mixture was prepared by mixing 6 μl of green dye to stain live cells (5 mg/ml Fluorescein diacetate or FDA in DMSO) with 30 μl of red dye (2.5 mg/ml Propidium iodide or PI in PBS) to stain dead cells in an Eppendorf tube. The FDA dye needs to be stored frozen in a −20° C. freezer because it has a labile ester bond. • 10. 1 μl of the dye mixture was added to each well of the 24-well dish. It is usually preferred to do one 24-well dish at a time given the amount of time needed to take pictures (the green dye is not as stable in the cells in the long term). • 11. The dish was gently rocked a few times to mix the dye with the media in the wells and incubate the dish at 37° C. for 10 min (too long incubation can make the green signal too intense). • 12. Each well was washed with 0.5 ml of sterile PBS and then 0.5 ml of phenol red free SFM was added to each well. Alternatively 0.5 ml of regular Endothelial Cell Growth Media can be added to each well if this well needs to be continuously maintained after the experiment. • 13. An inverted microscope using the 2× objective lens was used to observe morphological changes in the experimental wells. • 14. […]

[2] = tested on: LL/2 lung cancer tumor endothelial cells; experiment: Lung LL2 ex vivo model of tumor angiogenesis; type: cell-based, mouse; conditions: for Cell death: drug treatment for two days, ratio of red area to total endothelial cell area; for 48 hrs (morphology observations): LL/2 tumor endothelial cells; for cytotoxicity at 40 µM / cytotoxicity at 20 µM: Mus musculus, Endothelial cell, 48 h, read-out: Cell death
Method in brief: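 Live/dead imaging with FDA and PI, taken e.g. 48 h post-drug under fixed channel settings, measures treatment effects on endothelial cells sprouting from Lewis lung tumor explants. Explants were seeded in Matrigel drops and grown ~4 days in endothelial growth medium, 37 °C, 5% CO2, before dosing.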

[3] = Mus musculus, Endothelial cell, 48 h, read-out: Cell death

Structure (SMILES): CCc1ccc(S(=O)(=O)c2cnc3ccc(C(=O)O)cc3c2N2CCC(O)CC2)cc1 [Compound 65]
- 48 hrs (morphology observations after 48 hours) ([1]; Conc. 40 μm): 0
- cytotoxicity at 40 µM [1, 3]: 0%
- Cell death ([2]; 40 μm): 10%

Structure (SMILES): CCCCCCCOc1ccc(S(=O)(=O)c2cnc3ccc([S+](C)[O-])cc3c2N2CCC(N3CCCC(O)C3)CC2)cc1 (stereo not drawn) [Compound 254]
- 48 hrs (morphology observations after 48 hours) ([1]; Conc. 10 μm): ** (more than 50% but less than 100% of endothelial cells vesicularize in cell shape)
- cytotoxicity at 10 µM [1, 3]: 40%
- 48 hrs (morphology observations) ([2]; 20 μm): *** (more than 50% but less than 100% of endothelial cells vesicularize in cell shape)
- Cell death ([2]; 20 μm): 100%

Structure (SMILES): COc1ccc(S(=O)(=O)c2cnc3ccc([N+](=O)[O-])cc3c2-n2cncn2)cc1 [Compound 97]
- 48 hrs (morphology observations after 48 hours) ([1]; Conc. 10 μm): *** (100% of endothelial cells vesicularize in cell shape)
- cytotoxicity at 10 µM [1, 3]: 100%
- Cell death ([2]; 20 μm): 50%

Structure (SMILES): CCOC(=O)c1ccc2ncc(S(=O)(=O)c3ccc(CC)cc3)c(N3CCC(N4CCCCC4)CC3)c2c1 [Compound 64]
- 48 hrs (morphology observations after 48 hours) ([1]; Conc. 40 μm): *** (100% of endothelial cells vesicularize in cell shape)
- cytotoxicity at 40 µM [1, 3]: 100%
- 48 hrs (morphology observations) ([2]; 40 μm): *** (more than 50% but less than 100% of endothelial cells vesicularize in cell shape)
- cytotoxicity at 40 µM [2]: 100%

Structure (SMILES): CCCCCCCOc1ccc(S(=O)(=O)c2cnc3ccc([S+](C)[O-])cc3c2N2CCC(N3CCN(CCO)CC3)CC2)cc1 (stereo not drawn) [Compound 257]
- 48 hrs (morphology observations after 48 hours) ([1]; Conc. 10 μm): **** (100% of endothelial cells vesicularize in cell shape and look flattened in morphology (indicating disintegration of the cell body))
- cytotoxicity at 10 µM [1, 3]: 100%
- 48 hrs (morphology observations) ([2]; 20 μm): **** (100% of endothelial cells vesicularize in cell shape and look flattened in morphology (indicating disintegration of the cell body))
- cytotoxicity at 20 µM [2]: 100%

Structure (SMILES): CCCCOc1ccc(S(=O)(=O)c2cnc3ccc([S+](C)[O-])cc3c2N2CCC(N3CCC(O)(c4ccccc4)CC3)CC2)cc1 (stereo not drawn) [Compound 238]
- 48 hrs (morphology observations after 48 hours) ([1]; Conc. 10 μm): 0
- cytotoxicity at 10 µM [1, 3]: 10%
- 48 hrs (morphology observations) ([2]; 40 μm): *** (more than 50% but less than 100% of endothelial cells vesicularize in cell shape)

Structure (SMILES): COc1ccc(S(=O)(=O)c2cnc3ccc(OC(F)(F)F)cc3c2NCCO)cc1OC [Compound 69]
- 48 hrs (morphology observations after 48 hours) ([1]; Conc. 40 μm): 0
- cytotoxicity at 40 µM [1, 3]: 0%
- 48 hrs (morphology observations) ([2]; 40 μm): 0
- cytotoxicity at 40 µM [2]: 20%

Structure (SMILES): O=S(=O)(c1ccc(OC(F)(F)F)cc1)c1cnc2ccc(OC(F)(F)F)cc2c1-n1cncn1 [Compound 91]
- 48 hrs (morphology observations after 48 hours) ([1]; Conc. 10 μm): *** (100% of endothelial cells vesicularize in cell shape)
- cytotoxicity at 10 µM [1, 3]: 100%
- 48 hrs (morphology observations) ([2]; 20 μm): *** (more than 50% but less than 100% of endothelial cells vesicularize in cell shape)
- cytotoxicity at 20 µM [2]: 80%

Structure (SMILES): COc1ccc(S(=O)(=O)c2cnc3cc(OC)c(OC)cc3c2-n2cncn2)cc1OC [Compound 96]
- 48 hrs (morphology observations after 48 hours) ([1]; Conc. 10 μm): 0
- cytotoxicity at 10 µM [1, 3]: 0%
- cytotoxicity at 20 µM [2]: 0%

Structure (SMILES): CCCCOc1ccc(S(=O)(=O)c2cnc3ccc(C(=O)OCC)cc3c2N2CCC(N3CCCCC3)CC2)cc1 [Compound 157]
- 48 hrs (morphology observations after 48 hours) ([1]; Conc. 40 μm): **** (100% of endothelial cells vesicularize in cell shape and look flattened in morphology (indicating disintegration of the cell body))
- cytotoxicity at 40 µM [1, 3]: 60%
- 48 hrs (morphology observations) ([2]; 40 μm): *** (more than 50% but less than 100% of endothelial cells vesicularize in cell shape)
- Cell death ([2]; 40 μm): 100%

Structure (SMILES): CCOC(=O)c1ccc2ncc(S(=O)(=O)c3ccc(CC)cc3)c(NN3CCN(C)CC3)c2c1 [Compound 84]
- 48 hrs (morphology observations after 48 hours) ([1]; Conc. 40 μm): * (50% or less of cells vesicularize in cell shape)
- cytotoxicity at 40 µM [1, 3]: 100%
- cytotoxicity at 40 µM [2]: 100%

Structure (SMILES): CCc1ccc(S(=O)(=O)c2cnc3ccc(C(=O)O)cc3c2N2CCC(N3CCCCC3)CC2)cc1 [Compound 67]
- 48 hrs (morphology observations after 48 hours) ([1]; Conc. 40 μm): 0
- cytotoxicity at 40 µM [1, 3]: 0%
- Cell death ([2]; 40 μm): 10%

Structure (SMILES): CCN(CC)c1c(S(=O)(=O)c2ccc(OC)c(OC)c2)cnc2ccc(OC(F)(F)F)cc12 [Compound 68]
- 48 hrs (morphology observations after 48 hours) ([1]; Conc. 40 μm): ** (more than 50% but less than 100% of endothelial cells vesicularize in cell shape)
- cytotoxicity at 40 µM [1, 3]: 50%
- 48 hrs (morphology observations) ([2]; 40 μm): *** (more than 50% but less than 100% of endothelial cells vesicularize in cell shape)
- Cell death ([2]; 40 μm): 80%

Structure (SMILES): COc1ccc(S(=O)(=O)c2cnc3ccc(OC(F)(F)F)cc3c2NN2CCN(C)CC2)cc1OC [Compound 88]
- 48 hrs (morphology observations after 48 hours) ([1]; Conc. 40 μm): *** (100% of endothelial cells vesicularize in cell shape)
- cytotoxicity at 40 µM [1, 3]: 60%
- 48 hrs (morphology observations) ([2]; 40 μm): 0
- Cell death ([2]; 40 μm): 70%

Structure (SMILES): CN1CCN(Nc2c(S(=O)(=O)c3ccc(OC(F)(F)F)cc3)cnc3ccc(OC(F)(F)F)cc23)CC1 [Compound 90]
- 48 hrs (morphology observations after 48 hours) ([1]; Conc. 40 μm): 0
- cytotoxicity at 40 µM [1, 3]: 0%
- 48 hrs (morphology observations) ([2]; 40 μm): 0
- cytotoxicity at 40 µM [2]: 10%

Structure (SMILES): CCc1ccc(S(=O)(=O)c2cnc3ccc(OC(F)(F)F)cc3c2N2CCC(OCCN(CC)CC)CC2)cc1 [Compound 101]
- 48 hrs (morphology observations after 48 hours) ([1]; Conc. 20 μm): * (50% or less of cells vesicularize in cell shape)
- cytotoxicity at 20 µM [1, 3]: 50%
- 48 hrs (morphology observations) ([2]; 20 μm): *** (more than 50% but less than 100% of endothelial cells vesicularize in cell shape)
- cytotoxicity at 20 µM [2]: 100%

Structure (SMILES): CCCCOc1ccc(S(=O)(=O)c2cnc3ccc(C(=O)OCC)cc3c2N2CCC(N3CCN(CCO)CC3)CC2)cc1 [Compound 214]
- 48 hrs (morphology observations after 48 hours) ([1]; Conc. 40 μm): **** (100% of endothelial cells vesicularize in cell shape and look flattened in morphology (indicating disintegration of the cell body))
- cytotoxicity at 40 µM [1, 3]: 100%
- 48 hrs (morphology observations) ([2]; 40 μm): **** (100% of endothelial cells vesicularize in cell shape and look flattened in morphology (indicating disintegration of the cell body))
- cytotoxicity at 40 µM [2]: 100%

Structure (SMILES): COc1ccc(S(=O)(=O)c2cnc3ccc(OC(F)(F)F)cc3c2N2CCCC(O)C2)cc1OC (stereo not drawn) [Compound 70]
- 48 hrs (morphology observations after 48 hours) ([1]; Conc. 40 μm): 0
- cytotoxicity at 40 µM [1, 3]: 10%
- 48 hrs (morphology observations) ([2]; 40 μm): *** (more than 50% but less than 100% of endothelial cells vesicularize in cell shape)
- Cell death ([2]; 40 μm): 40%

Structure (SMILES): CCc1ccc(S(=O)(=O)c2cnc3ccc(OC(F)(F)F)cc3c2N2CCC(N3CCCC3)CC2)cc1 [Compound 46]
- 48 hrs (morphology observations after 48 hours) ([1]; Conc. 40 μm): **** (100% of endothelial cells vesicularize in cell shape and look flattened in morphology (indicating disintegration of the cell body))
- cytotoxicity at 40 µM [1, 3]: 100%
- 48 hrs (morphology observations) ([2]; 40 μm): **** (100% of endothelial cells vesicularize in cell shape and look flattened in morphology (indicating disintegration of the cell body))
- cytotoxicity at 40 µM [2]: 100%

Structure (SMILES): CCCCOc1ccc(S(=O)(=O)c2cnc3ccc([S+](C)[O-])cc3c2N2CCCN(C)CC2)cc1 (stereo not drawn) [Compound 163]
- 48 hrs (morphology observations after 48 hours) ([1]; Conc. 40 μm): **** (100% of endothelial cells vesicularize in cell shape and look flattened in morphology (indicating disintegration of the cell body))
- cytotoxicity at 40 µM [1, 3]: 100%
- 48 hrs (morphology observations) ([2]; 40 μm): **** (100% of endothelial cells vesicularize in cell shape and look flattened in morphology (indicating disintegration of the cell body))
- Cell death ([2]; 40 μm): 95%

Structure (SMILES): CCCCOc1ccc(S(=O)(=O)c2cnc3ccc([S+](C)[O-])cc3c2N2CCCN(CCN3CCCCC3)CC2)cc1 (stereo not drawn) [Compound 209]
- 48 hrs (morphology observations after 48 hours) ([1]; Conc. 40 μm): *** (100% of endothelial cells vesicularize in cell shape)
- cytotoxicity at 40 µM [1, 3]: 90%
- 48 hrs (morphology observations) ([2]; 40 μm): * (50% or less of cells vesicularize in cell shape)
- Cell death ([2]; 40 μm): 60%
